Reference: patent US10195297B2, “Iron garnet nanoparticles for cancer radiotherapy and chemotherapy” (priority 2014, dated 2019)

How the values were obtained:
human NSCLC A549 cells [1] = assay: MTS cytotoxicity studies of 166HoIG, 166HoIG-Pt and free Pt drugs (Example 6); format: cell-based; details: 24 h
Experimental: Cytotoxicity studies. The studies involving human NSCLC A549 cells were carried out under standard conditions in a humidified, 37° C., 5% CO2 atmosphere incubator. The culture medium used for A549 was Roswell Park Memorial Institute with 10% fetal calf serum (FCS), 100 μg/mL streptomycin, 100 IU/mL penicillin and 2.0 mM L-glutamine (RPMI).
Suspensions of each type of neutron-activated nanoparticle were prepared in RPMI. Two control groups, RPMI alone and RPMI with cells not exposed to ^166Ho nanoparticles, were included in each 96-well plate. At least four replicates were done for each concentration and each control group. The cells were seeded at 5×10^4 cells/mL (100 μL/well) in 96-well plates and allowed to grow for 24 h after which time the RPMI was removed and replaced with 100 μL of RPMI that contained blank ^166HoIG or ^166HoIG-Pt. After an exposure time of 24 h on a microplate shaker in the incubator, the RPMI was removed and replaced with 100 μL of fresh RPMI. […] After 1 h incubation with the MTS solution, the absorbance was read at 490 nm using a Synergy™ H1 hybrid multi-mode microplate reader. The percent survival of cells treated by each concentration of nanoparticles was calculated using the following equation:
[formula] where Ad is the absorbance of cells treated with nanoparticles, Am is the absorbance of medium alone and Ac is the absorbance of cells without treatment.

human NSCLC A549 cells [2] = assay: MTS cytotoxicity of neutron-activated nanoparticles and free Pt drugs (Example 2); format: cell-based; details: 24 h
Experimental: The radioactivity of nanoparticles prior to administration to cells was determined using a 2470 WIZARD 2 automatic gamma counter. Studies involving human NSCLC A549 cells were carried out under standard conditions in a humidified, 37° C., 5% CO2 atmosphere incubator. The culture medium used for A549 cells was minimum essential medium to which had been added 10% fetal calf serum, 100 μg/mL streptomycin, 100 IU/mL penicillin and 2.0 mM L-glutamine. Cells were seeded at 5×10^4 cells/ml (100 μL/well) in 96-well plates and allowed to grow for 24 h after which time the medium was removed and replaced with medium and drug. After an exposure time of 24 h, the medium with drug was removed and replaced with 100 μL of fresh medium. To each well, 20 μL of CellTiter 96® AQueous One Solution Cell Proliferation Assay (MTS) solution was added. After 2 h incubation with the MTS solution, the absorbance was read at 490 nm using a Synergy™ H1 hybrid multi-mode microplate reader. The percent survival of cells treated by each concentration of drug was calculated using the following equation:
[formula] where Ad is the absorbance of cells treated with drug, Am is the absorbance of medium alone and Ac is the absorbance of cells without treatment. The % survival data was fit to exponential regression and IC50 values calculated.

| SMILES | synergy with radiation (human NSCLC A549 cells [1]) | synergy with the radioactive Ho (human NSCLC A549 cells [2]) |
| --- | --- | --- |
| N.N.O=C([O-])C1(C(=O)[O-])CCC1.[Pt+2] [Free carboplatin, carboplatin] | did not act synergistically with radiation |  |
| N.N.[Cl][Pt][Cl] [cis, cisplatin] |  | act synergistically |
